From US8518700B2, “Composition for reprogramming somatic cells to generate induced pluripotent stem cells, comprising Bmi1 and low molecular weight substance, and method for generating induced pluripotent stem cells using the same” (Korea University Research and Business Foundation, priority 2010, dated 2013)

Columns and labels:
Format in all cases: cell-based
[1] = system: Bmi1-transduced mouse somatic cells (neurosphere-like cells); test: Reprogramming of neurosphere-like cells from Bmi1-transduced mouse somatic cells (EGF-free neural stem cell condition) into iPS cells; conditions: 1 μM BIX01294 and 0.5 μM RG108 together; one week; condition used for mouse embryonic stem cells
Experimental: (§1) Mouse somatic cells, in detail, mouse fibroblasts were employed to generate embryonic stem cell-like cells. Embryos were taken from CF1 strain mice on embryonic day 13.5. Cells were cultured in DMEM (high glucose, w/o sodium pyruvate) supplemented with 10% FBS (Fetal bovine serum), 0.1 mM non-essential amino acid, 1% penicillin/streptomycin and 0.1 mM β-mercaptoethanol in tissue culture flasks, after which fibroblasts at the 3rd passage were seeded at a density of 2×10^5 cells/well into 6-well plates.
(§2) For use in gene transfer, retrovirus particles were prepared from the PT67 packaging cell line. In this context, a pBabe puro Bmi1 (from Dr. G. P. Dimri, Evanston Northwestern Healthcare Research Institute, Feinberg School of Medicine, Northwestern University, Evanston, Ill. 60201, USA), constructed by inserting a human Bmi1 gene (NCBI accession No. L13689) into a pBabe puro vector, was transfected into a PT67 packaging cell line (Clontech) with the aid of Turbofect (Fermentas), followed by drug selection with puromycine (3 μg/ml, BD bioscience). The PT67 packaging cell line allowed the production of high-titer viruses capable of infecting a broad range of mammalian host cells.
(§3) The expression of each gene was monitored with RT-PCR. […]

[2] = system: Bmi1-transduced mouse somatic cells (Oct4-positive cells); test: Reprogramming of Oct4-positive Bmi1-transduced mouse somatic cells into iPS cells by treatment with low molecular weight substances; conditions: 0.5 μM PD0325901 and 3 μM CHIR99021 together; culture conditions of mouse embryonic stem cells
Experimental: as §1, §2, §3

[3] = system: Bmi1-transduced mouse somatic cells (neurosphere-like cells); test: Reprogramming of neurosphere-like cells from Bmi1-transduced mouse somatic cells (neural stem cell condition with bFGF and EGF) into iPS cells; conditions: 2 mM VPA; one week; condition used for mouse embryonic stem cells
Experimental: as §1, §2, §3

COc1cc2nc(N3CCCN(C)CC3)nc(NC3CCN(Cc4ccccc4)CC3)c2cc1OC [BIX01294, 2-(Hexahydro-4-methyl-1H-1,4-diazepin-1-yl)-6,7-dimethoxy-N-[1-(phenylmethyl)-4-piperidinyl]4-quinazolinamine]
Reprogramming into iPS cells (BC-iPS 2) [1]: establish iPS cells

Cc1c[nH]c(-c2cnc(NCCNc3ccc(C#N)cn3)nc2-c2ccc(Cl)cc2Cl)n1 [CHIR99021]
Reprogramming into iPS cells (BC-iPS 1) [2]: establish induced stem cells

O=C(NOC[C@H](O)CO)c1ccc(F)c(F)c1Nc1ccc(I)cc1F [PD0325901]
Reprogramming into iPS cells (BC-iPS 1) [2]: establish induced stem cells

O=C(O)[C@H](Cc1c[nH]c2ccccc12)N1C(=O)c2ccccc2C1=O [RG108, N-Phthalyl-L-tryptophan]
Reprogramming into iPS cells (BC-iPS 2) [1]: establish iPS cells

CCCC(CCC)C(=O)O [VPA, 2-propylenepentanoic acid]
Reprogramming into iPS cells [3]: iPS cells were established
